Experimental data from US8765949B2, “CCR2 receptor antagonists and uses thereof” (Boehringer Ingelheim International GmbH, priority 2009, dated 2014).

Biological target: T1, CCR2 (Homo sapiens, UniProt P41597)
T1 construct: Membranes were prepared from THP-1 cells; endogenous in cells; host or cells: THP-1 (human acute monocytic leukaemia cells), membrane preparation
T1 sequence (P41597 1-360 isoform P41597-2): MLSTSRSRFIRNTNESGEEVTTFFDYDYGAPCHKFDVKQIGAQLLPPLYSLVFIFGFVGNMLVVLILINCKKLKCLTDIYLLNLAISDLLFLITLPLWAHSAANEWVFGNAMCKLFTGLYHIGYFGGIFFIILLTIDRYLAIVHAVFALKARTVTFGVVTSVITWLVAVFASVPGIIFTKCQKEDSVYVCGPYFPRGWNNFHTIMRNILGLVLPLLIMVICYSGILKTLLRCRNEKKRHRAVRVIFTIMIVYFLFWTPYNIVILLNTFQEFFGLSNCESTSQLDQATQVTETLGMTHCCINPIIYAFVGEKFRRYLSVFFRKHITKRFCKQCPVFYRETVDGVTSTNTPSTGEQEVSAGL
Assay: CCR2 receptor membrane binding assay ([125I]MCP-1, THP-1 membranes, SPA beads)
Settings: dissociation constant hKi; THP-1 cell membranes, [125I]MCP-1, bound radioactivity after 8 h
Procedure: The above exemplary substances have been tested for binding to CCR2 using a binding assay as outlined herein below:
THP-1 cells (human acute monocytic leukaemia cells) were cultured under standardized conditions at 37° C. and 5% CO2 in a humidified incubator. THP-1 cells were cultivated in RPMI 1640 medium (Gibco 21875) containing 1% MEM-NEAA (Gibso 11140) 2 mM L-glutamine, 1.5 g/L sodium bicarbonate, 4.5 g/L glucose, 10 mM HEPES and 1.0 mM sodium pyruvate, 90%; 10% fetal calf serum (FCS Gibco 10500-064).
Membranes were prepared from THP-1 cells. THP-1 cells were centrifuged at 300×g at 4° C. for 10 min. The cell pellet was resuspendet in Phosphate Buffer Saline (PBS, including 10 μM Pefabloc and a protease inhibitor mix ‘complete’, Boehringer Mannheim (1 tablet/50 ml)), to a concentration of […]. The membrane preparation was performed by disrupting the cells by nitrogen […] (at 50 bar, for 1 h) in a “Nitrogen Bombe” (Parr Instrument). Cell debris was removed by centrifugation (800×g at 4° C., 1 min). The supernatant was centrifuged at 80000×g, 4° C. for 30 min to sediment the cell membranes. Usually 50 mg of protein (Bradford assay) were yielded from 1×10E9 cells. The membranes were resuspendet in 25 mM HEPES, 25 mM MgCl2, 1 mM CaCl2, 10% Glycerine for storage in aliquots at −80° C. in 25 mM HEPES, 25 mM MgCl2, 1 mM CaCl2, 10% Glycerine and stored at −80° C.
Receptor Membrane Binding Assay:
Perkin Elmer NEX 332 Jod 125 MCP-1, Stock: 2200 Ci/mmol solved in 2000 μl assay buffer, stored at −20° C. THP-1 membrane were adjusted with 25 mM HEPES, pH 7.2; 5 mM MgCl2; 0.5 mM CaCl2; 0.2% BSA assay buffer to a concentration of 2.5 μg/15 μl. Amersham Biosciences PVT-WGA Beads (RPNQ0001) were adjusted with assay buffer to a concentration of 0.24 mg/30 μl. For preparation of the membrane-bead-suspension membranes and beads were incubated for 30 min at RT under rotation (60 rpm) with a ratio of 1:2. Test compounds dissolved in 100% DMSO to a concentration of 10 mM and are further diluted with 100% DMSO to 1 mM. All additional compound dilutions were obtained with assay buffer, final 1% DMSO. Compounds, membrane-bead-suspension and [125I]MCP-1 (ca. 25000 cpm/10 μl) were incubated. Bound radioactivity was determined by scintillation counter after 8 h. Determination of affinity of test compounds (dissociation constant hKi) is calculated by iterative fitting of experimental data using the “easy sys” program, which is based on law of mass action (Schittkowski K. (1994), Numerische Mathematik, Vol. 68, 129-142).

Row | Structure (SMILES) | Ki [nM]
1 | CO[C@@H]1COCC[C@@H]1NC1CCN(C(=O)c2nc(C)nc(NC[C@@H]3CCC[C@H](c4cccc(C)c4)O3)c2C)CC1 [Example 35] | 96
2 | CO[C@H]1COCC[C@H]1NC1CCN(C(=O)c2ncnc(NC[C@@H]3CCC[C@H](c4ccc(C(F)(F)F)cc4)O3)c2C)CC1 [Example 36] | 51
3 | CO[C@@H]1COCC[C@@H]1NC1CCN(C(=O)c2ncnc(NC[C@@H]3CCC[C@H](c4ccc(C(F)(F)F)cc4)O3)c2C)CC1 [Example 37] | 25
4 | CO[C@@H]1COCC[C@@H]1NC1CCN(C(=O)c2ncnc(NC[C@@H]3CCC[C@H](c4ccccc4)O3)c2C)CC1 [Example 39] | 287
5 | CO[C@H]1COCC[C@H]1NC1CCN(C(=O)c2ncnc(NC[C@H]3CCC[C@@H](c4ccccc4)O3)c2C)CC1 [Example 40] | 26
6 | CO[C@@H]1COCC[C@@H]1NC1CCN(C(=O)c2ncnc(NC[C@H]3CCC[C@@H](c4ccc(Cl)cc4)O3)c2C)CC1 [Example 41] | 3
7 | CO[C@@H]1COCC[C@@H]1NC1CCN(C(=O)c2ncnc(NC[C@@H]3CCC[C@H](c4ccc(Cl)cc4)O3)c2C)CC1 [Example 43] | 39
8 | CO[C@@H]1COCC[C@@H]1NC1CCN(C(=O)c2ncnc(NC[C@H]3CCC[C@@H](c4cccc(C(F)(F)F)c4)O3)c2C)CC1 [Example 47] | 94
9 | CO[C@H]1COCC[C@H]1NC1CCN(C(=O)c2ncnc(NC[C@H]3CCC[C@@H](c4cccc(C)c4)O3)c2C)CC1 [Example 48] | 7
10 | CO[C@H]1COCC[C@H]1NC1CCN(C(=O)c2nc(C)nc(NC[C@H]3CCC[C@@H](c4cccc(C)c4)O3)c2C)CC1 [Example 50] | 9
11 | CO[C@@H]1COCC[C@@H]1NC1CCN(C(=O)c2ncnc(NC[C@H]3CCC[C@@H](c4ccc(C(F)(F)F)cc4)O3)c2C)CC1 [Example 52] | 1
12 | CO[C@H]1COCC[C@H]1NC1CCN(C(=O)c2ncnc(NC[C@H]3CCC[C@@H](c4ccc(C(F)(F)F)cc4)O3)c2C)CC1 [Example 53] | 2
13 | CO[C@@H]1COCC[C@@H]1NC1CCN(C(=O)c2ccnc(NC[C@H]3CCC[C@@H](c4ccc(C)cc4)O3)c2C)CC1 [Example 53a] | 7
14 | COc1nc(NC[C@H]2CCC[C@@H](c3ccc(C)cc3)O2)c(C)c(C(=O)N2CCC(N[C@H]3CCOC[C@H]3OC)CC2)n1 [Example 53aa] | 2
15 | COc1nc(NC[C@H]2CCC[C@@H](c3ccc(C(F)(F)F)cc3)O2)c(C)c(C(=O)N2CCC(N[C@@H]3CCOC[C@@H]3OC)CC2)n1 [Example 53ab] | 1

The next lines start with the values.

Row | Ki [nM] | Structure (SMILES)
16 | 148 | CO[C@@H]1COCC[C@@H]1NC1CCN(C(=O)c2ncnc(NC[C@@H]3CCC[C@H](c4cccc(C)c4)O3)c2C)CC1 [Example 33]
17 | 63 | CO[C@H]1COCC[C@H]1NC1CCN(C(=O)c2nc(C)nc(NC[C@@H]3CCC[C@H](c4cccc(C)c4)O3)c2C)CC1 [Example 34]
18 | 6 | CO[C@@H]1COCC[C@@H]1NC1CCN(C(=O)c2ncnc(NC[C@H]3CCC[C@@H](c4ccccc4)O3)c2C)CC1 [Example 38]
19 | 8 | CO[C@H]1COCC[C@H]1NC1CCN(C(=O)c2ncnc(NC[C@H]3CCC[C@@H](c4ccc(Cl)cc4)O3)c2C)CC1 [Example 42]
20 | 166 | CO[C@H]1COCC[C@H]1NC1CCN(C(=O)c2ncnc(NC[C@@H]3CCC[C@H](c4ccc(Cl)cc4)O3)c2C)CC1 [Example 44]
21 | 6 | CO[C@@H]1COCC[C@@H]1NC1CCN(C(=O)c2ncnc(NC[C@@H]3CCC[C@H](c4cccc(C(F)(F)F)c4)O3)c2C)CC1 [Example 45]
22 | 302 | CO[C@H]1COCC[C@H]1NC1CCN(C(=O)c2ncnc(NC[C@@H]3CCC[C@H](c4cccc(C(F)(F)F)c4)O3)c2C)CC1 [Example 46]
23 | 4 | CO[C@@H]1COCC[C@@H]1NC1CCN(C(=O)c2ncnc(NC[C@H]3CCC[C@@H](c4cccc(C)c4)O3)c2C)CC1 [Example 49]
24 | 8 | CO[C@@H]1COCC[C@@H]1NC1CCN(C(=O)c2nc(C)nc(NC[C@H]3CCC[C@@H](c4cccc(C)c4)O3)c2C)CC1 [Example 51]
